In assay [1] the test system is local neuronal activity in the neocortex. Kind of assay: Unit firing and local field potential recording with serial infusions through L-MiNDS in awake head-fixed monkey. Type of assay: in vivo, rhesus macaque (Macaca mulatta). To be noted: for rate of detected spike activity (local unit firing): muscimol 2 mg/ml in aCSF, 500 nl at 100 nl/min for 5 mins. As for the experimental part: The functionality of the system (specifically, the L-MiNDS) was confirmed in a large, awake behaving animal model, the rhesus macaque (macacca mulatta) monkey. The L-MiNDS was used to modulate and monitor local neuronal activity in the neocortex of a head-fixed monkey through serial infusions of aCSF and muscimol, which respectively preserve and inhibit baseline unit firing activity, as depicted in FIG. 21A. The 1st vertical line on left indicates the start of aCSF infusion (at 20 mins) and the 2nd vertical line denotes the muscimol infusion (at 63.7 mins). The impedance measurement of the W-electrode was 1.5 MΩ in brain and at pre-implantation in saline was 2 MΩ. Modulation of neuronal firing activity was monitored by recording signals at the MiNDS electrode adjoining the infusion ports. […] Then, aCSF was infused for 5 mins 20 s at an infusion rate of 100 nl/min. This control infusion had minimal effect on the local firing rate and unit waveform during and after the infusion. Muscimol was then infused at the same location for 5 mins at infusion rate of 100 nl/min. […] Vertical and horizontal bars denote 10 μV and 2 ms, respectively.
A second experiment was conducted targeting deeper layers of the neocortical region (i.e., dorsal bank of the cingulate cortex) to determine if recovery of the reduced neural activity through an additional infusion of aCSF could be induced at this adjoining site. This larger infusion of aCSF was indeed effective in reversing the inhibitory effect of muscimol, as shown by the observation of an increasing frequency of spikes with waveforms closely resembling those found during the pre-muscimol period, as depicted in FIGS. 23A-23C. In particular, the 1st vertical line on left in FIG. 23A denotes the start of aCSF infusion (at 20 mins), the second vertical line represents the start of muscimol infusion (at 43 mins), and the third vertical line denotes the start of aCSF infusion (at 92 mins). In FIG. 23Cm vertical and horizontal bars denote 10 μV and 2 ms, respectively. […] Compared to prior work, this is the first system that allows serial infusion of multiple distinct solutions to be delivered in a focal, independent manner in a NHP. The system's integrated electrode can also be used to record local field potentials (LFPs), as shown in FIGS. 24A and 24B, which may be important for clinical applications that may require chronic recording from a fixed brain location. For example, pathological beta-band LFP in Parkinson's disease and/or epileptic discharges in epilepsy could be recorded from the chronically integrated electrode to track and treat dysfunction in future applications. In FIG. 24A, two curves for each period represent 95% confidence intervals. Each pair of curves correspond to signals averaged over 10 mins periods as labeled in the legend at the top right of each plot. […] Alpha (5-11 Hz) and beta (11-30 Hz) band power fluctuate without correlation to the infusions. The prominent power at 60 Hz is due to coupling of power mains noise. […]
Solutions used for infusion through the MiNDS were aCSF (artificial cerebrospinal fluid, Tocris Biosciences) and muscimol (2 mg/ml in aCSF, Sigma-Aldrich). The MiNDS and guide cannula were sonicated in a detergent solution (Alconox, Inc.), rinsed with water, and then sonicated and soaked in 70% ethanol followed by water until they were ready for implantation. […]

In the next assay the test system is hippocampal (CA1) unit. Kind of assay: Acute tetrode recording with local micro-injection through MiNDS in anesthetized rats. Type of assay: in vivo. To be noted: anesthetized rat. As for the experimental part: Acute electrophysiological recordings and micro-injections were performed in anesthetized rats to test the system with a tetrode W electrode. […] The channel impedance values of the tetrode electrode (T-1, T-2, T-3, T-4) were 430, 370, 440, and 370 kΩ. […] The mean of the action potentials recorded from this unit was stable during the experiment (i.e. before first saline infusion, before first and second muscimol infusions), confirming that the unit was present during the trial, as shown in FIGS. 18A-C. […] Peak 1 and Peak 2 are the maximal value of waveforms measured by T-1, T-2, respectively. The projections of the peak values calculated from each recorded action potential are shown in FIG. 18C, reflecting the cluster-cutting used to isolate signals coming from different neurons. […]
The dura was removed and the device was lowered into the brain to a depth of 2.5 mm and a location with unit activity was identified. The local neural signals were recorded with Open Ephys GUI software. Prior to drug infusion, the local signals were recorded for 30 mins to ensure stable spikes were located. After the baseline recording, 150 nl of saline were infused into the site at a flow rate of 100 nl/min and the activity was recorded for another 30 mins. […] Recording was recorded for another 30 mins post muscimol infusion. […]

The next assay has as its system substantia nigra (SN). Kind of assay: Behavioral study: rotations after unilateral infusion into the substantia nigra through S-MiNDS with iPrecio pumps. Type of assay: in vivo. To be noted: rat. As for the experimental part: The capability of interfacing the system with deep brain structures to remotely control behavior was tested. In experiments in rats, the S-MiNDS was implanted in the SN and was connected to two implanted iPrecio pumps, containing either saline or muscimol. Unilateral delivery of muscimol to the SN is known to evoke preferential ipsilateral rotation, reflecting a hemiparkinsonian state. […] These studies were performed multiple times on each of multiple animals. This illustrates the ability of system to repeatedly and reproducibly deliver small volumes of drug to effect a reversible behavioral change.
A similar protocol as described above was used to implant the MiNDS with the iPrecio pumps. Rats were anesthetized, and their heads were shaved and disinfected. A longer incision was made to accommodate the insertion of the pumps. As aforementioned, the MiNDS burr hole was made 5 mm posterior to the bregma and 2.5 mm lateral to the midline, and a support screw burr hole was made 3 mm posterior and 2 mm lateral to the bregma, on the opposite side. The screw was implanted, such that 1 mm protruded beneath the skull. A subcutaneous cavity for the pump was made by blunt dissection, and the pump was inserted through the incision. The MiNDS probe was implanted and cemented to the skull using C&B Metabond adhesive (Parkell Inc., Edgewood N.Y.) and Orthojet dental cement (Lange Dental, Wheeling, Ill. USA), and the incision was closed using 5-0 monofilament non-resorbable suture and 3M tissue glue. Animals were closely observed during the recovery period and given analgesics and wet food. By 1 week post-surgery, in all cases animals were ambulatory and otherwise healthy. Animals implanted with pumps were used for the behavioral studies described below. […]
A rat was implanted with the MiNDS and two pumps pre-loaded and flushed with either saline or muscimol, as described above. The animal was placed within the dish and recorded over the course of 5 hrs. […]
Videos were imported into Ethovision, where they were analyzed for ipsilateral and contralateral rotations over time. […]

The mark [2] stands for this setting: 1.67 μl of muscimol (0.2 mg/ml) into SN, 180° turns.

For `NCc1cc(=O)[nH]o1` [muscimol], in assay [1] (after muscimol infusion), the “LFP power for alpha frequencies” value is on record as “persists”; the “LFP power for broadband, beta, and gamma frequency ranges” value is on record as “decreases significantly”. The “LFP broadband power from 30-100 Hz” value in assay [1] (after muscimol infusion, 10 mins intervals) is listed as “decreases immediately following muscimol infusion”. Moreover, the “rate of detected spike activity (local unit firing)” value in assay [1] is “immediately suspended activity”. For the same compound, in assay [1] (listed as Muscimol), the “rate of detected spike activity (local unit firing)” value is given as “immediately decreased the rate of detected spike activity”. Further, in the assay on hippocampal (CA1) unit (local infusion via iPrecio pump, first muscimol infusion at 60 mins), the “firing rate of hippocampal (CA1) unit after first muscimol injection” value is given as “a slow decrease of the firing rate occurred”. Also, in the assay with hippocampal (CA1) unit (second muscimol infusion at 90 mins), the “rate of detected spike activity of hippocampal (CA1) unit after second muscimol injection” value is “abolished the rate of detected spike activity”. Also, in the assay on substantia nigra (SN) (setting [2]), the counter-clockwise rotations entry is recorded as “remained the same” and the “increase in the number of clockwise rotations” value was 52 fold. For the same compound, in the assay with substantia nigra (SN) (remotely controlled infusion of 1.67 μl of muscimol (0.2 mg/ml) into SN), the “parkinsonian behavior (preferential ipsilateral rotation)” value is recorded as “reliably induced”.
